Assay results taken from patent publication US20160375006A1, “USES OF PARALOG-SELECTIVE INHIBITORS OF GSK3 KINASES” (priority 2012, published 2016).
Where two headings read alike, the source gives them in different places.

Experiments:
Erk5 = biological target: T1, Erk5 (Homo sapiens, UniProt Q13164); assay: Carna kinase panel; format: biochemical
T1 construct: purchased Carna Biosciences
Experimental: (§1) This was completed utilizing one of two assays depending on the kinase being examined.
(§2) A solution of IMAP binding reagent (IMAP Screening Express kit; Molecular Devices) (60 μL) was added to each well and incubated for 30 minutes.
(§3) A solution of termination buffer (QuickScout Screening assist MSA; Carna Biosciences) (60 μL) was added to each well. The entire reaction mixture was then applied to a LabChip3000 system (Caliper Life Science) and the product and substrate peptide peaks were separated and quantified.

CDK5/p25 = CDK5/p25 (Homo sapiens, UniProt Q00535)
Experimental: as §1, §2, §3
(§4) The assay utilized was identical to that of the single point inhibitory activity determination (MSA) but run in dose response. […] A solution of termination buffer (QuickScout Screening assist MSA; Carna Biosciences) (60 μL) was added to each well. The entire reaction mixture was then applied to a LabChip3000 system (Caliper Life Science) and the product and substrate peptide peaks were separated and quantified.

PAK4 = PAK4 (Homo sapiens, UniProt O96013)
Experimental: as §1, §2, §3

FLT3 = FLT3 (Homo sapiens, UniProt P36888)
CDK9/CycT1 = CDK9/CycT1 (Homo sapiens, UniProt P50750)
Experimental: as §1, §2, §3, §4

EPHA6 = EPHA6 (Homo sapiens, UniProt Q9UF33)
Sequence of EPHA6 (Q9UF33 23-1036): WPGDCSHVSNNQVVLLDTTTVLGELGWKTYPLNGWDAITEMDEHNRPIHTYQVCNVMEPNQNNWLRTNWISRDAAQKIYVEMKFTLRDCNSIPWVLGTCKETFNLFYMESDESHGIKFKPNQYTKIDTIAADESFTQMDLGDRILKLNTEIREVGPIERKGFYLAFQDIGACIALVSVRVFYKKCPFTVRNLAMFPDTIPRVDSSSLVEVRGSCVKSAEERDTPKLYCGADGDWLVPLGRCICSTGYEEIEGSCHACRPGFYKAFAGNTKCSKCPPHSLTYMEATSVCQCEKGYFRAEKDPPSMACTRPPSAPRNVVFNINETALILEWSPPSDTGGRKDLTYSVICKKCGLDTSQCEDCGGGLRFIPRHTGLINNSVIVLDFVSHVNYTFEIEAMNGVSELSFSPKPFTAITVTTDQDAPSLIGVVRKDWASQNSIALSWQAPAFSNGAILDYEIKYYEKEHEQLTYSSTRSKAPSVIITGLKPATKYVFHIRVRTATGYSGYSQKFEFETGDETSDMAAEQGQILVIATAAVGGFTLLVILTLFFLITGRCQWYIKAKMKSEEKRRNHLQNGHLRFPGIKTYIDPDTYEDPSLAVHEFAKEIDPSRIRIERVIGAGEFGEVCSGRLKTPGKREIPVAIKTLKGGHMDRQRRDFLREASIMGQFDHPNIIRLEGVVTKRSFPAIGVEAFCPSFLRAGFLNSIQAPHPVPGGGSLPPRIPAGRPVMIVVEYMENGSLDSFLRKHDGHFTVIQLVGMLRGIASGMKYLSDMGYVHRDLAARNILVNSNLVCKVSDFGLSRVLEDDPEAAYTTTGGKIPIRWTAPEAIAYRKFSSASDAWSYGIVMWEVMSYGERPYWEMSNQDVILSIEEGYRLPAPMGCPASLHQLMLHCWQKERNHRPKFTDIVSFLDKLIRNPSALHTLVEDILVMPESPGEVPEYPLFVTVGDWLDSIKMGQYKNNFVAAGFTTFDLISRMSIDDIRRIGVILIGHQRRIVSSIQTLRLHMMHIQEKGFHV
Experimental: as §1, §2, §3

TNIK = TNIK (Homo sapiens, UniProt Q9UKE5)
Experimental: as §1, §2, §3, §4

TRKC = TRKC (Homo sapiens, UniProt Q16288)
Experimental: as §1, §2, §3, §4

TRKB = TRKB (Homo sapiens, UniProt Q16620)
Experimental: as §1, §2, §3, §4

NPM1-ALK = NPM1-ALK (Homo sapiens, UniProt Q9UM73)
Experimental: as §1, §2, §3

MAP2K1_Cascade = MAP2K1_Cascade (Homo sapiens, UniProt Q02750)
Sequence of MAP2K1_Cascade (Q02750 whole entry): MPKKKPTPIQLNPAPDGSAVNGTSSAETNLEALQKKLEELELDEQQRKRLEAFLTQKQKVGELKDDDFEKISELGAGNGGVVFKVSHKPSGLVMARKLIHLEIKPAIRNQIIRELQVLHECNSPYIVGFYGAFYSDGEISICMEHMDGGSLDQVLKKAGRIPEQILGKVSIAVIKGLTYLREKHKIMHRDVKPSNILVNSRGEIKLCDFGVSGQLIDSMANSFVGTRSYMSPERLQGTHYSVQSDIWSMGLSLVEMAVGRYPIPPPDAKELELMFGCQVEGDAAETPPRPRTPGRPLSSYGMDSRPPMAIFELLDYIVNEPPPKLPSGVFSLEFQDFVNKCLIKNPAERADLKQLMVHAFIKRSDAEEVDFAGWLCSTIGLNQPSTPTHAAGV
Experimental: as §1, §2, §3, §4

TRKA = TRKA (Homo sapiens, UniProt P04629)
Experimental: as §1, §2, §3, §4

BMX = BMX (Homo sapiens, UniProt P51813)
Experimental: as §1, §2, §3, §4

ALK(F1174L) = ALK(F1174L) (Homo sapiens, UniProt Q9UM73, F1174L)
Experimental: as §1, §2, §3

ALK(R1275Q) = ALK(R1275Q) (Homo sapiens, UniProt Q9UM73, R1275Q)
Experimental: as §1, §2, §3, §4

KIT = KIT (Homo sapiens, UniProt P10721)
Sequence of KIT (P10721 26-976): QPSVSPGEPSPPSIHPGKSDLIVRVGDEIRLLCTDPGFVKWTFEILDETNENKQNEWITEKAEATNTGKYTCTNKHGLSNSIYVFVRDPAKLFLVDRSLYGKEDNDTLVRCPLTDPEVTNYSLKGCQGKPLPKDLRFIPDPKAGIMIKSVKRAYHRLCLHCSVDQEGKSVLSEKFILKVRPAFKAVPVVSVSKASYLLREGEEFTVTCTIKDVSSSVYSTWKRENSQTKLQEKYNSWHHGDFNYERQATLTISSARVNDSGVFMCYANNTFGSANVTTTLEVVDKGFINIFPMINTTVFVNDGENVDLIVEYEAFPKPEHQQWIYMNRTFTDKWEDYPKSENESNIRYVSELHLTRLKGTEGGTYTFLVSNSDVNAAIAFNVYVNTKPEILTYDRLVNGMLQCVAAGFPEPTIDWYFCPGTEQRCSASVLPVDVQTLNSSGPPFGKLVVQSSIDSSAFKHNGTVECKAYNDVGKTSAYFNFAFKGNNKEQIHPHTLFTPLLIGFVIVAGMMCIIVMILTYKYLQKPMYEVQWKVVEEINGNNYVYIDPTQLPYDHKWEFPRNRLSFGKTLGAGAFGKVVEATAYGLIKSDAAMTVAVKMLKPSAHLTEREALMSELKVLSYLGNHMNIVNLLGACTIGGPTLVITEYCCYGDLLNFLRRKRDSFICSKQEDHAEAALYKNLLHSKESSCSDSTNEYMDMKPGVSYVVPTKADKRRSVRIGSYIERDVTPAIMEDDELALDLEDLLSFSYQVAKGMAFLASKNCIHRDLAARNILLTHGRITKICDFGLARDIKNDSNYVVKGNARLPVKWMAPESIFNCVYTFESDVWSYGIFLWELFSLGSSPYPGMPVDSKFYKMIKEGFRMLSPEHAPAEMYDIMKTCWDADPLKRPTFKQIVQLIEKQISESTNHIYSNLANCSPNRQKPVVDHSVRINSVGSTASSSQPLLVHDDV
Experimental: as §1, §2, §3

MET(Y1235D) = MET(Y1235D) (Homo sapiens, UniProt P08581, Y1235D)
Experimental: as §1, §2, §3, §4

KIT(V654A) = KIT(V654A) (Homo sapiens, UniProt P10721, V654A)
Sequence of KIT(V654A) (P10721 26-976 V654A): as the sequence (P10721 26-976) above, with V629A counted along it
Experimental: as §1, §2, §3, §4

TXK = TXK (Homo sapiens, UniProt P42681)
Experimental: as §1, §2, §3, §4

RET(Y791F) = RET(Y791F) (Homo sapiens, UniProt P07949, Y791F)
Sequence of RET(Y791F) (P07949 29-1114 Y791F): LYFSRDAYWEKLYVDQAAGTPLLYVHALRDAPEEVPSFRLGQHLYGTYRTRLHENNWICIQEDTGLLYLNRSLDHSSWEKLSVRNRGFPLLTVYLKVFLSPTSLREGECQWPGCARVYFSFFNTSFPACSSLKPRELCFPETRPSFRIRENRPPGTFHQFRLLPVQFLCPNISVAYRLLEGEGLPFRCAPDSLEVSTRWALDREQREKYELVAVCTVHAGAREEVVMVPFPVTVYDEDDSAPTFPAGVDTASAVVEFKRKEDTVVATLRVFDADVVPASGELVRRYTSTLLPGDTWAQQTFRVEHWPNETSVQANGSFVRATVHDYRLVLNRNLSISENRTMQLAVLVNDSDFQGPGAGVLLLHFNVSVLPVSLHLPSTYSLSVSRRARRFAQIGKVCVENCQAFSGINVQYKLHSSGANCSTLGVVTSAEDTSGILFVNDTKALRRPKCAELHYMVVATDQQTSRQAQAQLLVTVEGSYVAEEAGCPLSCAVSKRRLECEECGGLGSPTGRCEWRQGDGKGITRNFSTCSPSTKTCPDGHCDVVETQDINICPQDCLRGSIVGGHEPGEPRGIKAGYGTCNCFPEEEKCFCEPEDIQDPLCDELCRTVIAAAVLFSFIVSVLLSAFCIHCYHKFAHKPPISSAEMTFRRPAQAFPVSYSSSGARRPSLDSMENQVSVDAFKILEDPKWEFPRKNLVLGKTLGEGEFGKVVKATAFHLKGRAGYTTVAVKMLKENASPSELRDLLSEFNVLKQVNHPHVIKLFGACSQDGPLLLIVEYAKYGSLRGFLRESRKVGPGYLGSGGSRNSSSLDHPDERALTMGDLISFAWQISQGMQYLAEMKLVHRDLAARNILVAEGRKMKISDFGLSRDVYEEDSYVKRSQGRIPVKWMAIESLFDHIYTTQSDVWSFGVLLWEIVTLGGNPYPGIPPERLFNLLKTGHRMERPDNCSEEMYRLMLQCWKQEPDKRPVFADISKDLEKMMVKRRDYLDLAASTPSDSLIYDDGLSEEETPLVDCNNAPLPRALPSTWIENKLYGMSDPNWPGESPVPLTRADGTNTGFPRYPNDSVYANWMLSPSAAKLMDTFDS
Experimental: as §1, §2, §3, §4

MSK2 = MSK2 (Homo sapiens, UniProt O75676)
Sequence of MSK2 (O75676 whole entry): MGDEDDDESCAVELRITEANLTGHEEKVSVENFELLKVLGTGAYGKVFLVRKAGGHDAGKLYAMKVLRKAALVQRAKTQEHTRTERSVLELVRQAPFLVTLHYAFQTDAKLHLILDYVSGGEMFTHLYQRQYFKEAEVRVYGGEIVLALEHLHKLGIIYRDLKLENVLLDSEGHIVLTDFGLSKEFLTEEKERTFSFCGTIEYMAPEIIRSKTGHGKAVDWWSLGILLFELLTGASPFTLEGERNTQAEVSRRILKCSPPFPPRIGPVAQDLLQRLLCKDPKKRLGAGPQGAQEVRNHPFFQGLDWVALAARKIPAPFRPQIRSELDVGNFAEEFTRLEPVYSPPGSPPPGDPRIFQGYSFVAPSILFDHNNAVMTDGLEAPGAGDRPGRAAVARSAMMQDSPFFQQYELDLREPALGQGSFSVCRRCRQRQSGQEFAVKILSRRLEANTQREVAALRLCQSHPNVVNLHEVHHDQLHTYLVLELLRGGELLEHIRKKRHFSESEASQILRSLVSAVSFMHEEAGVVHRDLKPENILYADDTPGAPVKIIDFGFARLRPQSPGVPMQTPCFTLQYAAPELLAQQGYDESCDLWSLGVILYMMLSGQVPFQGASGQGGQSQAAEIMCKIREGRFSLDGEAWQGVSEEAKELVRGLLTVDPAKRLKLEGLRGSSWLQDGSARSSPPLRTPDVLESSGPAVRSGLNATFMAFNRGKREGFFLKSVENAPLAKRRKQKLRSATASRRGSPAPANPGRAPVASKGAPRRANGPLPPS
Experimental: as §1, §2, §3, §4

p38β = p38β (Homo sapiens, UniProt Q15759)
Experimental: as §1, §2, §3, §4

FGFR3 = FGFR3 (Homo sapiens, UniProt P22607)
Experimental: as §2, §3, §4

CK1γ1 = CK1γ1 (Homo sapiens, UniProt Q9HCP0)
Experimental: as §1, §2, §3, §4

LTK = LTK (Homo sapiens, UniProt P29376)
Experimental: as §1, §2, §3, §4

PDGFRα(V561D) = PDGFRα(V561D) (Homo sapiens, UniProt P16234, V561D)
Experimental: as §1, §2, §3, §4

WNK3 = WNK3 (Homo sapiens, UniProt Q9BYP7)
Experimental: as §1, §2, §3, §4

WNK1 = WNK1 (Homo sapiens, UniProt Q9H4A3)
Text: as §1
The assay utilized was identical to that of the single point inhibitory activity determination (MSA) but run in dose response.

NDR1 = NDR1 (Homo sapiens, UniProt Q15208)
Experimental: as §1, §2, §3, §4

EGFR(T790M) = EGFR(T790M) (Homo sapiens, UniProt P00533, T790M)
Experimental: as §1, §2, §3, §4

AurA/TPX2 = AurA/TPX2 (Homo sapiens, UniProt O14965)
Experimental: as §1, §2, §3, §4

IRAK4 = IRAK4 (Homo sapiens, UniProt Q9NWZ3)
Experimental: as §1, §2, §3, §4

PKACβ = PKACβ (Homo sapiens, UniProt P22694)
Experimental: as §1, §2, §3, §4

AKT1 = AKT1 (Homo sapiens, UniProt P31749)
Experimental: as §1, §2, §3, §4

FGFR2 = FGFR2 (Homo sapiens, UniProt P21802)
Experimental: as §1, §2, §3

EGFR(d746-750) = EGFR(d746-750) (Homo sapiens, UniProt P00533, DEL746-750)
Experimental: as §1, §2, §3

FGFR3(K650E) = FGFR3(K650E) (Homo sapiens, UniProt P22607, K650E)
Experimental: as §1, §2, §3, §4

MAPKAPK2 = MAPKAPK2 (Homo sapiens, UniProt P49137)
Experimental: as §1, §2, §3, §4

Sequence of CDK5/p25 (Q00535 whole entry, species assumed): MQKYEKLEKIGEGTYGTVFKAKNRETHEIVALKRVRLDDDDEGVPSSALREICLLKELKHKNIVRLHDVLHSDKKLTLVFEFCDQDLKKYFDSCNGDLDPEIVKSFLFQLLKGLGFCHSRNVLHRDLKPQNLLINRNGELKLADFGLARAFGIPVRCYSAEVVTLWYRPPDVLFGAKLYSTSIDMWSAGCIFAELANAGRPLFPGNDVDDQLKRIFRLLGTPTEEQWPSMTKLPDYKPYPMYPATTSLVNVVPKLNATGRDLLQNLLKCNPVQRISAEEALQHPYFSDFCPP
Sequence of CDK5/p25 (Q15078 99-307 partner limits assumed, species assumed): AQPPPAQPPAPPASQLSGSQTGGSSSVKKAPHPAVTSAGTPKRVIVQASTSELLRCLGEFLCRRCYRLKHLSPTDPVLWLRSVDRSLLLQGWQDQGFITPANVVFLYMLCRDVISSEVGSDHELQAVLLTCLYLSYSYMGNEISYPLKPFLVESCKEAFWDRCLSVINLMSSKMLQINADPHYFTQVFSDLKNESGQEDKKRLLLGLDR
Experimental for MAP3K2_Cascade: as §1, §2, §3, §4

CC[C@@]1(c2ccccc2)C2=C(CC(C)(C)CC2=O)Nc2n[nH]cc21 [BRD0705]
% Inhibition at 10 μM (Erk5): −7.9%
% Inhibition at 10 μM (CDK5/p25; CDK5/p25): 52.0%
IC50 (CDK5/p25; read-out: IC50 CDK5/p25): 9.2 µM
% Inhibition at 10 μM (PAK4): 33.8%
% Inhibition at 10 μM (FLT3): 25.0%
% Inhibition at 10 μM (CDK9/CycT1): 8.4%
% Inhibition at 10 μM (EPHA6): 7.4%
% Inhibition at 10 μM (TNIK): 6.8%
% Inhibition at 10 μM (TRKC): 6.4%
% Inhibition at 10 μM (TRKB): 4.5%
% Inhibition at 10 μM (NPM1-ALK): 3.7%
% Inhibition at 10 μM (MAP2K1_Cascade): 3.0%
% Inhibition at 10 μM (TRKA): 2.9%
% Inhibition at 10 μM (BMX): 2.7%
% Inhibition at 10 μM (ALK(F1174L)): 1.7%
% Inhibition at 10 μM (MAP3K2_Cascade): 1.0%
% Inhibition at 10 μM (ALK(R1275Q)): 0.7%
% Inhibition at 10 μM (KIT): −0.3%
% Inhibition at 10 μM (MET(Y1235D)): −1.0%
% Inhibition at 10 μM (KIT(V654A)): −1.0%
% Inhibition at 10 μM (TXK): −1.7%
% Inhibition at 10 μM (RET(Y791F)): −2.2%
% Inhibition at 10 μM (MSK2): −2.5%
% Inhibition at 10 μM (p38β): −2.7%
% Inhibition at 10 μM (FGFR3): −2.8%
% Inhibition at 10 μM (CK1γ1): −3.4%
% Inhibition at 10 μM (LTK): −3.6%
% Inhibition at 10 μM (PDGFRα(V561D)): −3.7%
% Inhibition at 10 μM (WNK3): −3.7%
% Inhibition at 10 μM (WNK1): −4.2%
% Inhibition at 10 μM (NDR1): −4.8%
% Inhibition at 10 μM (EGFR(T790M)): −4.9%
% Inhibition at 10 μM (AurA/TPX2): −5.3%
% Inhibition at 10 μM (IRAK4): −7.4%
% Inhibition at 10 μM (PKACβ): −7.7%
% Inhibition at 10 μM (AKT1): −8.3%
% Inhibition at 10 μM (FGFR2): −9.2%
% Inhibition at 10 μM (EGFR(d746-750)): −12.0%
% Inhibition at 10 μM (FGFR3(K650E)): −15.5%
% Inhibition at 10 μM (MAPKAPK2): −22.4%

CC(C)(C)Cc1[nH]nc2c1[C@](C)(c1ccccc1)C1=C(CC(C)(C)CC1=O)N2 [BRD3731]
% Inhibition 10 μM (Erk5; 10 μM): 4.5%
IC50 (CDK5/p25; CDK5/p25): 8.9 µM
% Inhibition 10 μM (CDK5/p25; CDK5/p25, 10 μM): 48.3%
Fold Selectivity (CDK5/p25; IC50 CDK5/p25 / IC50 GSK3β): 331.0 fold
% Inhibition 10 μM (PAK4; 10 μM): 0.6%
% Inhibition 10 μM (FLT3; 10 μM): 13.8%
% Inhibition 10 μM (CDK9/CycT1; 10 μM): 11.3%
% Inhibition 10 μM (EPHA6; 10 μM): 9.6%
% Inhibition 10 μM (TNIK; 10 μM): −1.2%
% Inhibition 10 μM (TRKC; 10 μM): 12.1%
% Inhibition 10 μM (TRKB; 10 μM): 11.0%
% Inhibition 10 μM (NPM1-ALK; 10 μM): −2.1%
% Inhibition 10 μM (MAP2K1_Cascade; 10 μM): 3.1%
% Inhibition 10 μM (TRKA; 10 μM): 12.0%
% Inhibition 10 μM (BMX; 10 μM): −3.8%
% Inhibition 10 μM (ALK(F1174L); 10 μM): 0.2%
% Inhibition 10 μM (MAP3K2_Cascade; 10 μM): −0.7%
% Inhibition 10 μM (ALK(R1275Q); 10 μM): 1.9%
% Inhibition 10 μM (KIT; 10 μM): −1.7%
% Inhibition 10 μM (MET(Y1235D); 10 μM): 1.2%
% Inhibition 10 μM (KIT(V654A); 10 μM): −1.9%
% Inhibition 10 μM (TXK; 10 μM): 1.3%
% Inhibition 10 μM (RET(Y791F); 10 μM): 9.5%
% Inhibition 10 μM (MSK2; 10 μM): 12.6%
% Inhibition 10 μM (p38β; 10 μM): −0.2%
% Inhibition 10 μM (FGFR3; 10 μM): −0.7%
% Inhibition 10 μM (CK1γ1; 10 μM): 1.2%
% Inhibition 10 μM (LTK; 10 μM): −3.5%
% Inhibition 10 μM (PDGFRα(V561D); 10 μM): 6.6%
% Inhibition 10 μM (WNK3; 10 μM): 2.1%
% Inhibition 10 μM (WNK1; 10 μM): −1.0%
% Inhibition 10 μM (NDR1; 10 μM): −3.7%
% Inhibition 10 μM (EGFR(T790M); 10 μM): −4.0%
% Inhibition 10 μM (AurA/TPX2; 10 μM): 3.8%
% Inhibition 10 μM (IRAK4; 10 μM): 0.1%
% Inhibition 10 μM (PKACβ; 10 μM): 9.3%
% Inhibition 10 μM (AKT1; 10 μM): −1.1%
% Inhibition 10 μM (FGFR2; 10 μM): 1.9%
% Inhibition 10 μM (EGFR(d746-750); 10 μM): 2.5%
% Inhibition 10 μM (FGFR3(K650E); 10 μM): 0.7%
% Inhibition 10 μM (MAPKAPK2; 10 μM): 22.4%
